Measured values published in patent US20120295838A1, “Selective poly-substituted glycine antibiotics and related compositions” (priority 2008, published 2012).
Where two headings read alike, the source gives them in different places. Square brackets hold non-standard residues; d marks the D form. Peptide text beside a SMILES is read from it. Nspe = C[C@H](NCC(=O)O)c1ccccc1; Nlys = NCCCCNCC(=O)O

Columns and labels:
human erythrocytes = experiment: Hemolysis assay; assay type: cell-based
Experimental: (§1) Hemolysis assays. Erythrocytes were isolated from freshly drawn, heparanized human blood and resuspended to 20 vol % in PBS (pH 7.4). In a 96-well microtiter plate, 100 μL erythrocyte suspension was added to 100 uL peptoid solution in PBS (prepared by 1:2 serial dilutions), or 100 μL PBS in the case of negative controls. 100% hemolysis wells contained 100 μL, blood cell suspension with 100 μL 0.2 vol % Triton X-100. The plate was incubated for 1 h at 37° C., then each well was diluted with 1504 PBS. The plate was then centrifuged at 1200 g for 15 min, 100 μL of the supernatant from each well transferred to a fresh microtiter plate, and A350 measured.
Hemolysis assays. Erythrocytes were isolated from freshly drawn, heparanized human blood and resuspended in PBS (pH 7.4) to make a 20% volume suspension. Peptoid solutions were prepared by serial dilution (2:1) in a 96-well microtiter plate. For test wells, 100 μLL of erythrocyte suspension was added to 100 μL of peptoid solution in PBS; PBS without peptoid was used as the negative control and 0.2 vol % Triton X-100 as the positive control that indicates 100% hemolysis. After 1 hour incubation at 37° C., each well was diluted with 150 μL PBS. Plates were then centrifuged at 1,200×g for 15 minutes to pellet the cells. 30 μL of the supernatant from each well were transferred to the corresponding well of a second 96-well plate that contains 70 μL PBS.
as §1, with “assays for Compositions.” for “assays.”, “100” for “100 uL”, “μL” for “μL,”, “150 μL” for “1504”, “1200g” for “1200 g”

[1] = RP-HPLC solvent composition at elution as measure of molecular hydrophobicity; assay type: physicochemical; details: Table 8; gradient 5 to 95% ACN over 45 min, C18 column, 0.2 ml/min; average of three replicates
Excerpt: An initial set of 15 ampetoid analogs was synthesized to determine whether peptoids are affected by structural and sequence modifications in a manner consistent with AMP activities. The designs for ampetoids in this library were derived from two antibacterial and selective amphipathic dodecamers, 1 and 2. Peptoid 1 [H-(Nlys-Nspe-Nspe)4-NH2] is composed of 2/3 Nspe, the peptoid analog of phenylalanine, and 1/3 Mys, the peptoid analog of lysine (see FIG. 1 for the structures of representative peptoid monomers and corresponding N-substituents). Peptoid 2 [H-(Mys-Nssb-Nspe)4-NH2] contains 1/3 isoleucine-like Nssb monomers in place of Nspe. The variant sequences were designed to effect changes in chirality, length, hydrophobicity, charge, and amphipathicity. All of these compounds were tested for antibacterial activity against representative BSL1 Gram-negative (E. coli JM109) and Gram-positive (B. subtilis BR151) bacterial strains. As an initial measure of selectivity, the lytic activity of the peptoids was determined against human erythrocytes. Table 1 summarizes the sequences synthesized, the solvent composition at RP-HPLC elution as a relative measure of molecular hydrophobicity, and antibacterial and hemolytic activities.
Following synthesis, peptoid oligomers can be cleaved from the resin, simultaneously removing the tert-butoxycarbonyl (Boc) protecting group from Mys residues, by treatment with 10 ml 2,2,2-trifluoroacetic acid (TFA)/triisopropylsilane/H2O (95:2.5:2.5 by volume) for 30 min. The cleavage mixture is then diluted with 25 ml 50% aqueous acetonitrile, frozen, and lyophilized. Dilution and lyophilization is repeated twice more in order to remove excess TFA. Subsequent to cleavage, peptoids are each purified to >97% homogeneity by preparative scale reversed-phase HPLC using a Waters Prep LC 4000 system, with Waters 2487 dual-wavelength UV detection, and gradient elution (solvent A, 0.1 vol % trifluoroacetic acid (TFA) in water; solvent B, 0.1 vol % TFA in acetonitrile) through a Vydac (Hysperia, Calif.) 214TP101550 C4 peptide/protein column (10-15 μm, 300 Å, 5×25 cm). Following prep HPLC, peptoid purities and crude yields were determined from analytical scale HPLC, performed with a Waters 2695 Separations Module with a Waters 2487 dual-wavelength UV detector and gradient elution (solvent A, 0.1 vol % TFA in water; solvent B, 0.1 vol % TFA in acetonitrile) through a Vydac C4 214TP53 peptide/protein column (5 μm, 300 Å, 3.2×250 mm). The precise gradient employed for HPLC depended on the identity and hydrophobicity of the oligomer in question. All analytical HPLC was performed at 0.5 ml/min flow and 58° C. Preparative HPLC was performed at 50 ml/min flow and room temperature.
Compound synthesis and purification. Peptoids were synthesized using an ABI 433A peptide synthesizer (Applied Biosystems, Inc.) on Rink amide MBHA resin (Novabiochem, Inc.) using the submonomer approach^3. Briefly, bromoacetic acid, activated by diisopropylcarbodiimide was used to form a bromocetylated intermediate on the terminal amide group. Bromide was then substituted with the desired primary amine through SN2 displacement to build the peptoid chain. The amines used in peptoid synthesis include benzylamine, octadecylamine, (s)-(+)-2-amino-3-methylbutane, (s)-α-methylbenzylamine, (r)-(α-methylbenzylamine (all purchased from Sigma-Aldrich), and N-tert-butoxycarbonyl-1,4 diaminobutane (Mys) that was made using a published procedure^83. Resin-bound peptoids were then exposed to a mixture of trifluoroacetic acid (TFA): triisopropylsilane:water (95:2.5:2.5, v:v:v) for ten minutes to cleave peptoids from the solid phase. Peptoids were purified by reversed-phase HPLC (RP-HPLC) (Waters Corporation) using a C18 column and a linear acetonitrile/water gradient. A final purity greater than 97% as measured by analytical RP-HPLC (Waters Corporation) was achieved, and the identity of each molecule was checked using electrospray ionization mass spectrometry. […]

E. coli ATCC 35218 = assay type: cell-based
Experimental: (§2) Whereas the preceding generation of molecules was designed to elucidate structure function relationships of specific molecular parameters (chirality, length, hydrophobicity, etc.), another generation compounds were designed explicitly to explore effects on selectivity. Antimicrobial activity of these compounds was tested against bacterial strains E. coli (ATTC 35218) and B. subtilis (ATTC 6633) in cation-adjusted MHB using the microdilution protocols previously described. The sequences, antimicrobial activities, hemolytic activities, and metabolic inhibitory concentrations against NIH 3T3 mouse fibroblast cells are summarized in Table 3 and the rationale of their design is described below.
(§3) Screening antibacterial assays. MICs were determined in 96-well microtiter plates in accordance with CLSI M7-A6 protocols. Peptoid solutions with 50 μL total volume were prepared using 2:1 serial dilutions. 50 i—tL of bacteria inoculum (1×10^6 CFU/mL) prepared in cation-adjusted Mueller-Hinton broth (CAMHB) was added to test wells. Control wells contained 100 μL MHB (no growth) or 50 μL inoculums with 50 μL MHB with no peptoid. […] Reported values were reproducible over three experiments, each containing two parallel trials.
(§4) Antibacterial Assays for Compositions. MICs were determined according to CLSI M7-A6 protocols in a 96-well microtiter plate. In test wells, 50 μL bacterial inoculum (1×10^6 CFU/ml) in cation-adjusted Mueller-Hinton broth (CAMHB) was added to 50 μL peptoid solution in CAMHB (prepared by 1:2 serial dilutions). Positive controls contained 50 μL inoculum and 50 μL CAMHB without peptoid. […] MIC values reported were reproducible between three independent experimental replicates, each consisting of two parallel trials.

MTS assay, NIH 3T3 cells = assay type: cell-based, mouse; details: mouse, NIH 3T3 fibroblast cells
Experimental: (§5) The potencies of all compounds were determined against representative Gram-negative (E. coli ATCC 35218) and Gram-positive (B. subtilis ATCC 6633) biosafety level 1 (BSL1) organisms. In addition to hemolytic activity, the conventional measure of toxicity to mammalian cells, the effect of each ampetoid on NIH 3T3 mouse fibroblast cells was determined using the MTS tetrazolium salt-based colorimetric assay. While hemolysis measures the degree to which erythrocytes are lysed, the MTS assay indirectly quantifies the extent to which cellular metabolic activity is inhibited.
(§6) MTS assays. NIH/3T3 cells (ATCC Corporation) cultured at 37° C. and 5% CO2 in complete Dulbecco's modified eagle's media (CDMEM) supplemented with 1% sodium pyruvate, 1% penicillin-streptomycin, 1.5 g/L NaHCO3, and 10% fetal bovine serum. Cells were seeded at a density of 5,000 cells per well for NIH/3T3 cells in 96-well plates (100 μl total volume). A peptoid solution plate (100 μL total volume per well) was prepared by serial dilution of aqueous peptoid stock solution in Hank's balanced salt solution (HBSS) media. The day-old cell monolayers were washed with HBSS and media was replaced with 100 μL HBSS. The contents of the peptoid solution plate were transferred onto corresponding wells of the cell monolayer plate, and 40 μL MTS reagent (Promega, Inc.) was added to each well. After incubating for 3 hours at 37° C., absorbance at 490 nm was determined. […] The average of six replicates is reported.

B. subtilis ATCC 6633 = assay type: cell-based
Experimental: as §2, §3, §4

[2] = system: NIH 3T3 mouse fibroblast cells; experiment: MTS assay, NIH 3T3 cells; assay type: cell-based
Experimental: as §5, §6

CC[C@H](C)[C@H](NC(=O)CN)C(=O)NCC(=O)N[C@@H](C)C(=O)N[C@H](C(=O)N[C@@H](CC(C)C)C(=O)N[C@@H](CCCCN)C(=O)N[C@H](C(=O)N[C@@H](CC(C)C)C(=O)N[C@H](C(=O)N[C@H](C(=O)NCC(=O)N[C@@H](CC(C)C)C(=O)N1CCC[C@H]1C(=O)N[C@@H](C)C(=O)N[C@@H](CC(C)C)C(=O)N[C@H](C(=O)N[C@@H](CO)C(=O)N[C@@H](Cc1c[nH]c2ccccc12)C(=O)N[C@H](C(=O)N[C@@H](CCCCN)C(=O)N[C@@H](CCCNC(=N)N)C(=O)N[C@@H](CCCCN)C(=O)N[C@@H](CCCNC(=N)N)C(=O)N[C@@H](CCC(N)=O)C(=O)N[C@@H](CCC(N)=O)C(N)=O)[C@@H](C)CC)[C@@H](C)CC)[C@@H](C)O)[C@@H](C)O)C(C)C)C(C)C [melittin, reference compound]
HD50 (human erythrocytes; Table 8): 6 µM
% ACN at RP-HPLC elution [1]: 65.2 % ACN
MIC for E. coli ATCC 35218 (E. coli ATCC 35218; Table 8, CAMHB): 12.5 µM
SR (E. coli ATCC 35218; Table 8, calculated as HD10/E. coli MIC): 0.16

C[C@@H](c1ccccc1)N(CC(N)=O)C(=O)CN(CCCCN)C(=O)CN(CCCCN)C(=O)CN(C(=O)CN(C(=O)CN(CCCCN)C(=O)CN(C(=O)CN(CCCCN)C(=O)CN(CCCCN)C(=O)CN(C(=O)CN(C(=O)CNCCCCN)[C@@H](C)c1ccccc1)[C@@H](C)c1ccccc1)[C@@H](C)c1ccccc1)[C@@H](C)c1ccccc1)[C@@H](C)c1ccccc1 [1-Nlys5,11, H-(Nlys-Nspe-Nspe-Nlys-Nlys-Nspe)2-NH2] (H-[Nlys][Nspe][Nspe][Nlys][Nlys][Nspe][Nlys][Nspe][Nspe][Nlys][Nlys][Nspe]-NH2)
CC50 at 3 h (MTS assay, NIH 3T3 cells): 85 µM
HD10 (human erythrocytes): >200/>200 μM
HD50 (human erythrocytes): >200/>200 μM
MIC for B. subtilis ATCC 6633 (B. subtilis ATCC 6633; ATCC 6633): 0.78 µM
E. coli MIC (E. coli ATCC 35218; ATCC 35218): 50 µM
MIC for E. coli ATCC 35218 (E. coli ATCC 35218; ATCC 35218): 30 µM

C[C@@H](c1ccccc1)N(CC(N)=O)C(=O)CN(C(=O)CN(CCCCN)C(=O)[C@@H]1CCCN1C(=O)CN(C(=O)CN(CCCCN)C(=O)CN(C(=O)CN(C(=O)CN(CCCCN)C(=O)CN(C(=O)CN(C(=O)CNCCCCN)[C@@H](C)c1ccccc1)[C@@H](C)c1ccccc1)[C@@H](C)c1ccccc1)[C@@H](C)c1ccccc1)[C@@H](C)c1ccccc1)[C@@H](C)c1ccccc1 [1-Pro9, H-(Nlys-Nspe-Nspe)2-Nlys-Nspe-L-Pro-Nlys-Nspe-Nspe-NH2] (H-[Nlys][Nspe][Nspe][Nlys][Nspe][Nspe][Nlys][Nspe]P[Nlys][Nspe][Nspe]-NH2)
CC50 at 3 h (MTS assay, NIH 3T3 cells): 24 µM
ID50 [2]: 24 µM
E. coli MIC (E. coli ATCC 35218; ATCC 35218): 12.5 µM

C[C@@H](c1ccccc1)N(CC(N)=O)C(=O)CN(C(=O)CN(CCCCN)C(=O)CN(Cc1ccccc1)C(=O)CN(Cc1ccccc1)C(=O)CN(CCCCN)C(=O)CN(C(=O)CN(C(=O)CN(CCCCN)C(=O)CN(Cc1ccccc1)C(=O)CN(Cc1ccccc1)C(=O)CNCCCCN)[C@@H](C)c1ccccc1)[C@@H](C)c1ccccc1)[C@@H](C)c1ccccc1 [1-Npm2,3,8,9, H-(Nlys-Npm-Npm-Nlys-Nspe-Nspe)2-NH2]
CC50 at 3 h (MTS assay, NIH 3T3 cells): 15 µM
ID50 [2]: 15 µM
E. coli MIC (E. coli ATCC 35218; ATCC 35218): 6.3 µM

CC(C)[C@H](C)N(CC(N)=O)C(=O)CN(C(=O)CN(CCCCN)C(=O)CN(C(=O)CN(C(=O)CN(CCCCN)C(=O)CN(C(=O)CN(C(=O)CN(CCCCN)C(=O)CN(C(=O)CN(C(=O)CNCCCCN)[C@@H](C)C(C)C)[C@@H](C)C(C)C)[C@@H](C)C(C)C)[C@@H](C)C(C)C)[C@@H](C)C(C)C)[C@@H](C)C(C)C)[C@@H](C)C(C)C [1-Nsdpall, H-(Nlys-Nsdp-Nsdp)4-NH2]
CC50 at 3 h (MTS assay, NIH 3T3 cells): 64 µM
B. subtilis MIC (B. subtilis ATCC 6633; Table 6, B. subtilis ATCC 6633): 0.78 µM
Selectivity ratio SR B. subtilis (B. subtilis ATCC 6633; Table 6, ratio of 10% hemolytic dose to B. subtilis MIC): 256
E. coli MIC (E. coli ATCC 35218; Table 6, E. coli ATCC 35218): 25 µM
Selectivity ratio SR E. coli (E. coli ATCC 35218; Table 6, ratio of 10% hemolytic dose to E. coli MIC): > 8
